From US20050009007A1 (priority 2003, published 2005)

System: giant synaptic terminal of depolarizing bipolar cells from the goldfish retina
Type: cell-based
Details: n=7

In the case of `O=C(O)CN(CC(=O)O)c1ccccc1OCCOc1ccccc1N(CC(=O)O)CC(=O)O` [BAPTA], the “increase in area of the footprint triggered by depolarization” value was “completely blocked”.
